Laboratory results from ChEMBL document CHEMBL5584244, “Discovery of novel pyrrolo[2,1-c][1,4]benzodiazepine-3,11-dione (PBD) derivatives as selective HDAC6 inhibitors for the efficient treatment of idiopathic pulmonary fibrosis (IPF) in vitro and in vivo” (Eur J Med Chem, 2024).
Activity calls are given as the source filed them. The calls are words filed in the database; no cut-off is given here.

Experiments:
[1] = target: T1, Protein deacetylase HDAC6 (Homo sapiens, UniProt Q9UBN7); test: Inhibition of recombinant human full length HDAC6 using Boc-Lys (Ac)-AMC as substrate incubated for 120 mins by fluorescence analysis
T1 sequence (Q9UBN7 whole entry): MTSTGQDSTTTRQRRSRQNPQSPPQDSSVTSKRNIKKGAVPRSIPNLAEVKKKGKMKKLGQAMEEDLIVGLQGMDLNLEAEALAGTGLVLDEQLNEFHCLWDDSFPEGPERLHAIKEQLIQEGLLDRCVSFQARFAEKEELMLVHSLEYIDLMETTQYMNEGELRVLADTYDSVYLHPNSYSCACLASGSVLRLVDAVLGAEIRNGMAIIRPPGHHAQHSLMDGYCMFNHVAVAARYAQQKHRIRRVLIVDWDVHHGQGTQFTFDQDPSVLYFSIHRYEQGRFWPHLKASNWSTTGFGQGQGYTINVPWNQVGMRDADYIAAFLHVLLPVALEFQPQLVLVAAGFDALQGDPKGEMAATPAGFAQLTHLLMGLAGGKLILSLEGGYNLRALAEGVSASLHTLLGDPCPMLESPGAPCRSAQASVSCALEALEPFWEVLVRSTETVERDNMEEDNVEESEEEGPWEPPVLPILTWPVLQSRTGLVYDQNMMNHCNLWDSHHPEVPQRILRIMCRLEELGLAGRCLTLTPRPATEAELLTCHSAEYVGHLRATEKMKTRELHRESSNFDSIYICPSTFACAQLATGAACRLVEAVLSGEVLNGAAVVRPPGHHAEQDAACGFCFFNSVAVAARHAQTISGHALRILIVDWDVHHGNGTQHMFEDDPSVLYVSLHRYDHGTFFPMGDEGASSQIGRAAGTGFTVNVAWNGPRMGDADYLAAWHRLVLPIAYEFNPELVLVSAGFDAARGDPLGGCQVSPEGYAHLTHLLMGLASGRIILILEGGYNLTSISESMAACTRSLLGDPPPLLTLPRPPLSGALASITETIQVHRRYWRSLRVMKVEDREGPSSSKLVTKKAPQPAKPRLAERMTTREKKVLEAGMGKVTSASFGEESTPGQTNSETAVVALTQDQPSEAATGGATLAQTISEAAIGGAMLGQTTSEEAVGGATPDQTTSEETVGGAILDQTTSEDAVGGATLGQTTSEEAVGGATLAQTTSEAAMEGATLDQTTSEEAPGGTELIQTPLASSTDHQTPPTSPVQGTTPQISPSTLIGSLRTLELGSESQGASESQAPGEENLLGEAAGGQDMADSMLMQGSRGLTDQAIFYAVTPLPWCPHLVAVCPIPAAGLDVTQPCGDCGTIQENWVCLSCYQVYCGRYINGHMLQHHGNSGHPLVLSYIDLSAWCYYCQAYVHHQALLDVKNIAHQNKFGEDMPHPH

Histone deacetylase 4 = Histone deacetylase 4 (Homo sapiens, UniProt P56524); test: Inhibition of recombinant human HDAC4 using Boc-Lys (Ac)-AMC as substrate incubated for 120 mins by fluorescence analysis
Histone deacetylase 11 = target: T2, Histone deacetylase 11 (Homo sapiens, UniProt Q96DB2); test: Inhibition of recombinant human full length HDAC11 using Boc-Lys (Tfa)-AMC as substrate incubated for 120 mins by fluorescence analysis
T2 sequence (Q96DB2 whole entry): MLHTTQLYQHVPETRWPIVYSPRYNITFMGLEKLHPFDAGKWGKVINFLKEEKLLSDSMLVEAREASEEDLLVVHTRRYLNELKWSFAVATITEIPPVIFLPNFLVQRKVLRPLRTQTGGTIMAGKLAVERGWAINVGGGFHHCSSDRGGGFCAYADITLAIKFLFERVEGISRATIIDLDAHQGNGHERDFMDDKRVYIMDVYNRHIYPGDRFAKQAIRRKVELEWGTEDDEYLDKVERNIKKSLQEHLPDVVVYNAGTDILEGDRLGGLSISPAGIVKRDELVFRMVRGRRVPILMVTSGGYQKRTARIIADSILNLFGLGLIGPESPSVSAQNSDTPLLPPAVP

[2] = target: T3, Polyamine deacetylase HDAC10 (Homo sapiens, UniProt Q969S8); test: Inhibition of N-terminal FLAG-tagged recombinant human HDAC10 (2 to 631 residues) expressed in baculovirus sf9 insect cells expression system using Boc-Lys (Ac)-AMC as substrate incubated for 120 mins by fluorescence analysis
T3 sequence (Q969S8 whole entry): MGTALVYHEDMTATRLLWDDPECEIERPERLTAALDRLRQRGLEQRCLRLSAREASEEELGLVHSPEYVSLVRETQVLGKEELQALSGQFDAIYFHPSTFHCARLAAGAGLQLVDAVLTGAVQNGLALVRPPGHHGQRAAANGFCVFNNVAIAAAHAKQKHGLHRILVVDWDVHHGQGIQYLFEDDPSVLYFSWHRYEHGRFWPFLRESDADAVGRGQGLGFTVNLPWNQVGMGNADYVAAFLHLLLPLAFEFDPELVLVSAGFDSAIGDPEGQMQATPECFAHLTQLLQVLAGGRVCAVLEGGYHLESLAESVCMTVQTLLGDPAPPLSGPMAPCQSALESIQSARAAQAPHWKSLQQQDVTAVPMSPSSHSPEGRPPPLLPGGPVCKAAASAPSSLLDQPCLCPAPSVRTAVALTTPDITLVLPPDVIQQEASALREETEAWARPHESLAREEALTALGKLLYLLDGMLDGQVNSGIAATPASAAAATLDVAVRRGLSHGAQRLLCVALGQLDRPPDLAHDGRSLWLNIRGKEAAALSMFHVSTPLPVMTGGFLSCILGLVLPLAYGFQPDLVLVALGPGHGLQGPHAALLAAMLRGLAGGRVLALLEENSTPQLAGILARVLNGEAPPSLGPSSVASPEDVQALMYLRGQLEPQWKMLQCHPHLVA

Homo sapiens = species: Homo sapiens; test: Selectivity index, ratio IC50 for C-terminal His6/Flag-tagged recombinant human full length HDAC1 to IC50 for inhibition of recombinant human full length HDAC6
Histone deacetylase 7 = target: T4, Histone deacetylase 7 (Homo sapiens, UniProt Q8WUI4); test: Inhibition of N-terminal GST-tagged recombinant human HDAC7 (518 to end residues) expressed in baculovirus expression system using Boc-Lys (Tfa)-AMC as substrate incubated for 120 mins by fluorescence analysis
T4 sequence (Q8WUI4 whole entry): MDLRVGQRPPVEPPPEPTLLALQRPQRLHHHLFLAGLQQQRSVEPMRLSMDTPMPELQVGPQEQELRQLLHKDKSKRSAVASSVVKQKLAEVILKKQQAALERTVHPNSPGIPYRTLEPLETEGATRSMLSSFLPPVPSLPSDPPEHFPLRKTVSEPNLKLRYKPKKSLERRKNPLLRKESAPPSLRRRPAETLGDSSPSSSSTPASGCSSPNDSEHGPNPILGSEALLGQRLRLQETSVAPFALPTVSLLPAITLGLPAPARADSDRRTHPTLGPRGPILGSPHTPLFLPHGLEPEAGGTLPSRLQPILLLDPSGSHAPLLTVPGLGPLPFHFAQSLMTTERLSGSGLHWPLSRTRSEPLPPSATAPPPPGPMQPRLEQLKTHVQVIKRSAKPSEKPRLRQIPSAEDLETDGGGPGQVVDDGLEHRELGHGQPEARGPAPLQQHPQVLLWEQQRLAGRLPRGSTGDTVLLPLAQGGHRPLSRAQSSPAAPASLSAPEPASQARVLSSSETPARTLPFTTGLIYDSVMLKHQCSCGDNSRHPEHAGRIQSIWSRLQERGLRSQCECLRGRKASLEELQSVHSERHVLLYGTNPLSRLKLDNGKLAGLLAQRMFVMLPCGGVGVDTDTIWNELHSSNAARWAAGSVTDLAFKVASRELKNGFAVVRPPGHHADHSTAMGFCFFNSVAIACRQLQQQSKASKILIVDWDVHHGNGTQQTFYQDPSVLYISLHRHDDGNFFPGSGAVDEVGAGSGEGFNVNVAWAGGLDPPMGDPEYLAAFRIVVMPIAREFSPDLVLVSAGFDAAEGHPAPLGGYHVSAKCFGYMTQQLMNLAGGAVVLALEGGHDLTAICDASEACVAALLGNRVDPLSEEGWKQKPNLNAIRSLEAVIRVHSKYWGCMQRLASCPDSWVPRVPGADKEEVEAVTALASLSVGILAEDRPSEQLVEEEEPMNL

Histone deacetylase 1 = Histone deacetylase 1 (Homo sapiens, UniProt Q13547); test: Inhibition of C-terminal His6/Flag-tagged recombinant human full length HDAC1 using Boc-Lys (Ac)-AMC as substrate incubated for 120 mins by fluorescence analysis
Histone deacetylase 2 = Histone deacetylase 2 (Homo sapiens, UniProt Q92769); test: Inhibition of recombinant human full length HDAC2 using Boc-Lys (Ac)-AMC as substrate incubated for 120 mins by fluorescence analysis
Mus musculus [3] = test: Anti-pulmonary fibrosis activity in bleomycin-induced C57BL/6 mouse model of pulmonary fibrosis assessed as decrease structural damage in lung at 100 mg/kg, ip for 3 weeks by H and E staining based fluorescence microscopic analysis; type: functional, organism-based
Mus musculus [4] = test: Anti-pulmonary fibrosis activity in bleomycin-induced C57BL/6 mouse model of pulmonary fibrosis assessed as decrease in inflammatory cell infiltration in lung at 100 mg/kg, ip for 3 weeks by H and E staining based fluorescence microscopic analysis; type: functional, organism-based
Mus musculus [5] = test: Anti-pulmonary fibrosis activity in bleomycin-induced C57BL/6 mouse model of pulmonary fibrosis assessed as decrease in collagen level in lung at 100 mg/kg, ip for 3 weeks by Masson trichrome staining based microscopic analysis; type: functional, organism-based
Mus musculus [6] = test: Anti-pulmonary fibrosis activity in bleomycin-induced C57BL/6 mouse model of pulmonary fibrosis assessed as decrease in thickening of the alveolar wall in lung at 100 mg/kg, ip for 3 weeks by Masson trichrome staining based microscopic analysis; type: functional, organism-based
Mus musculus [7] = test: Anti-pulmonary fibrosis activity in bleomycin-induced C57BL/6 mouse model of pulmonary fibrosis assessed as increase in body weight at 100 mg/kg, ip for 3 weeks; type: functional, organism-based
Mus musculus [8] = test: Anti-pulmonary fibrosis activity in bleomycin-induced C57BL/6 mouse model of pulmonary fibrosis assessed as decrease in structural damage in lung at 100 mg/kg, ip for 3 weeks by Masson trichrome staining based microscopic analysis; type: functional, organism-based
Mus musculus [9] = test: Anti-pulmonary fibrosis activity in bleomycin-induced C57BL/6 mouse model of pulmonary fibrosis assessed as decrease in collapse of the alveolar cavity in lung at 100 mg/kg, ip for 3 weeks by Masson trichrome staining based microscopic analysis; type: functional, organism-based
Mus musculus [10] = test: Anti-pulmonary fibrosis activity in bleomycin-induced C57BL/6 mouse model of pulmonary fibrosis assessed as decrease in fibrosis scars in lung at 100 mg/kg, ip for 3 weeks by H and E staining based fluorescence microscopic analysis; type: functional, organism-based
Mus musculus [11] = test: Anti-pulmonary fibrosis activity in bleomycin-induced C57BL/6 mouse model of pulmonary fibrosis assessed as decrease in disturbance of alveolar structure in lung at 100 mg/kg, ip for 3 weeks by H and E staining based fluorescence microscopic analysis; type: functional, organism-based
Mus musculus [12] = test: Anti-pulmonary fibrosis activity in bleomycin-induced C57BL/6 mouse model of pulmonary fibrosis assessed as decrease in collapse of the alveolar cavity in lung at 100 mg/kg, ip for 3 weeks by H and E staining based fluorescence microscopic analysis; type: functional, organism-based
Mus musculus [13] = test: Anti-pulmonary fibrosis activity in bleomycin-induced C57BL/6 mouse model of pulmonary fibrosis assessed as decrease in thickening of the alveolar wall in lung at 100 mg/kg, ip for 3 weeks by H and E staining based fluorescence microscopic analysis; type: functional, organism-based
[14] = Half life in human liver microsomes at 100 uM by LC-MS/MS analysis; type: ADME, Microsome

Histone deacetylase 1, sequence (Q13547 whole entry): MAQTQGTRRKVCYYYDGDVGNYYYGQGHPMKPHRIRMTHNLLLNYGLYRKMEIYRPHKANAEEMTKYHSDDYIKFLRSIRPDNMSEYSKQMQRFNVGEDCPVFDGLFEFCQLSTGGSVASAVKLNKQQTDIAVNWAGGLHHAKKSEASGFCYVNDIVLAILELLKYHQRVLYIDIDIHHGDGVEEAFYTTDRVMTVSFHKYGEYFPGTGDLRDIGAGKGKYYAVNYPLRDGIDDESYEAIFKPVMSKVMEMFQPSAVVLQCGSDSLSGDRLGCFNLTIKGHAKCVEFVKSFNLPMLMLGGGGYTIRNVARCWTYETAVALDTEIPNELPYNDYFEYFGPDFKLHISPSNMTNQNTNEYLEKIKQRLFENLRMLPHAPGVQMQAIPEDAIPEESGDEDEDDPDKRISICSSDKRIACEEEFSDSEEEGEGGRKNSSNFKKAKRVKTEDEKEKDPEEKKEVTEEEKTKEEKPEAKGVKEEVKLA
Histone deacetylase 2, sequence (Q92769 whole entry): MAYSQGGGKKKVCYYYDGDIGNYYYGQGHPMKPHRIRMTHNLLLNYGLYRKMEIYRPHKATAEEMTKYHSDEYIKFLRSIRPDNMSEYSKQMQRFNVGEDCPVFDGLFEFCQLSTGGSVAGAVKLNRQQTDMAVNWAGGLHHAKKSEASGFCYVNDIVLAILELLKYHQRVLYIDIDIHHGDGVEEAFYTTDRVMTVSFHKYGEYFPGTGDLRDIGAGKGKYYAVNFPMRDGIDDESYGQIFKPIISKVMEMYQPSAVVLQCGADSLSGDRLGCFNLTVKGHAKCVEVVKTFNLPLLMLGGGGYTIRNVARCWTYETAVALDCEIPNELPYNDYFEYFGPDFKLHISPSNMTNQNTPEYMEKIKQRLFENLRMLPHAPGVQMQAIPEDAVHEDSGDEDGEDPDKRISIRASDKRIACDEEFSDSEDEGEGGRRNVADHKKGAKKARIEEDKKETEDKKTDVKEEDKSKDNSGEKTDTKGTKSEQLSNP
Histone deacetylase 4, sequence (P56524 whole entry): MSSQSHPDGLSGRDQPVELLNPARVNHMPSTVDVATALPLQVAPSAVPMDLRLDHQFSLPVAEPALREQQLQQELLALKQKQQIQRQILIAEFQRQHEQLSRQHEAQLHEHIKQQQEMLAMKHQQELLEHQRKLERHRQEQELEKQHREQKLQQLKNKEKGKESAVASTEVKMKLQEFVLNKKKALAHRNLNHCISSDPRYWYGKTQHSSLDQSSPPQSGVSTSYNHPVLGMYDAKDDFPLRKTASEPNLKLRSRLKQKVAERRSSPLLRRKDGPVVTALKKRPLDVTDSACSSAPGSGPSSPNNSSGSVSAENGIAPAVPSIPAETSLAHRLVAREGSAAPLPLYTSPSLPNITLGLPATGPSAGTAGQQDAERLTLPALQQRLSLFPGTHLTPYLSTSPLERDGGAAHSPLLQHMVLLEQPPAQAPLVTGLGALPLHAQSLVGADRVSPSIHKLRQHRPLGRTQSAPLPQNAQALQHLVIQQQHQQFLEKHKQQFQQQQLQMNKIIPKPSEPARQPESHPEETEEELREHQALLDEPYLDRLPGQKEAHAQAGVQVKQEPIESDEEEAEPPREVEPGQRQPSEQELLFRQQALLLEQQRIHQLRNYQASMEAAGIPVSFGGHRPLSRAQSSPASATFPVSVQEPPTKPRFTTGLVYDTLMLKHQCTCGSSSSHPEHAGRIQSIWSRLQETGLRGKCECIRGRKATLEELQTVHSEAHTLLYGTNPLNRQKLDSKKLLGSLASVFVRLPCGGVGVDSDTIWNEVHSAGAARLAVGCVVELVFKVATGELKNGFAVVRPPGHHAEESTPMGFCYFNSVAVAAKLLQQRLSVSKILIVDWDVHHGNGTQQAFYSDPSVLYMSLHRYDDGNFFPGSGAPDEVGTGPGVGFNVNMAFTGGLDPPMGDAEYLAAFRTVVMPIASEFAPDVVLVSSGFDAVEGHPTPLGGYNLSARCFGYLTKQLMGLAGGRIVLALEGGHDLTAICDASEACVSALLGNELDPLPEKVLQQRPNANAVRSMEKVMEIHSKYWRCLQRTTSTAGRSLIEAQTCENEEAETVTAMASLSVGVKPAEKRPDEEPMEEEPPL

IC50 [1] [nM] | SMILES | other results
> 300 | O=C(NO)c1ccccc1CN1C(=O)[C@@H]2CCCN2Cc2ccccc21 | 
17.4 | COc1cc2c(cc1OCc1ccccc1)CN1C(=O)CC[C@H]1C(=O)N2CCCCCC(=O)NO | 
288 | O=C(Cc1ccc(CN2C(=O)[C@@H]3CCCN3Cc3ccccc32)cc1)NO | 
8.45 | O=C(CCCCCN1C(=O)[C@@H]2CCCN2Cc2ccccc21)NO | IC50 (Histone deacetylase 4): 499 nM; IC50 (Histone deacetylase 11): > 50000 nM; IC50 [2]: 961 nM; Ratio IC50 (Homo sapiens): 51.7; IC50 (Histone deacetylase 7): 731 nM; IC50 (Histone deacetylase 1): 437 nM; IC50 (Histone deacetylase 2): 2680 nM
176 | COc1cc2c(cc1O)CN1C(=O)CC[C@H]1C(=O)N2CCCCCCCC(=O)NO | 
> 300 | O=C(NO)c1cccc(CN2C(=O)[C@@H]3CCCN3Cc3ccccc32)c1 | 
 | Cc1ccc(=O)n(-c2ccccc2)c1 | Activity (Mus musculus [3]): Active; Activity (Mus musculus [4]): Active; Activity (Mus musculus [5]): Active; Activity (Mus musculus [6]): inactive; Activity (Mus musculus [7]): Active; Activity (Mus musculus [8]): inactive; Activity (Mus musculus [9]): inactive; Activity (Mus musculus [10]): Active; Activity (Mus musculus [11]): Active; Activity (Mus musculus [12]): Active; Activity (Mus musculus [13]): Active
275 | COc1cc2c(cc1OCc1ccccc1)CN1C(=O)CC[C@H]1C(=O)N2CCCCCCCC(=O)NO | 
294 | O=C(CCCCCCN1C(=O)[C@@H]2CCCN2Cc2ccccc21)NO | 
22.3 | COc1cc2c(cc1OCc1ccccc1)CN1C(=O)CC[C@H]1C(=O)N2Cc1ccc(CC(=O)NO)cc1 | 
291 | O=C(CCCCCCCN1C(=O)[C@@H]2CCCN2Cc2ccccc21)NO | 
21.2 | COc1cc2c(cc1OCc1ccccc1)CN1C(=O)CC[C@H]1C(=O)N2Cc1ccc(C(=O)NO)cc1 | 
12.1 | COc1cc2c(cc1OCc1ccccc1)CN1C(=O)CC[C@H]1C(=O)N2CCCCCCC(=O)NO | 
15.6 | COc1cc2c(cc1O)CN1C(=O)CC[C@H]1C(=O)N2CCCCCC(=O)NO | 
 | O=C(O)Cc1ccccc1Nc1c(Cl)cccc1Cl [DICLOFENAC] | half-life at 100 µM [14]: 5.3 min
13.5 | COc1cc2c(cc1O)CN1C(=O)CC[C@H]1C(=O)N2CCCCCCC(=O)NO | 
296 | COc1cc2c(cc1O)CN1C(=O)CC[C@H]1C(=O)N2Cc1cccc(C(=O)NO)c1 | 
279 | COc1cc2c(cc1O)CN1C(=O)CC[C@H]1C(=O)N2Cc1ccccc1C(=O)NO | 
204 | COc1cc2c(cc1OCc1ccccc1)CN1C(=O)CC[C@H]1C(=O)N2Cc1ccccc1C(=O)NO | 
126 | COc1cc2c(cc1O)CN1C(=O)CC[C@H]1C(=O)N2Cc1ccc(C(=O)NO)cc1 | 
181 | COc1cc2c(cc1OCc1ccccc1)CN1C(=O)CC[C@H]1C(=O)N2Cc1cccc(C(=O)NO)c1 | 
